Counter-ions that a name gives are not always drawn.
What was measured:
[1] = system: senescent cells in the lung; assay: Elimination of senescent cells induced by whole body irradiation in mice; format: in vivo; settings: 6 Gray whole body irradiation; 2 months later treated for 4 consecutive days; FIG. 16
Text: (A) Experimental set up, mice (n=5 per group) were irradiated with 6 Gray to induce senescence. […] (B) Cryosections of lungs obtained from control and irradiated mice were stained with hematoxilin and eosin (to reveal tissue architecture), and SA-β-Gal (to reveal senescent cells). Senescent cells accumulate in the bronchioles of irradiated mice. (C) Quantification of the lung area positive for SA-β-Gal staining. […] (D). Representative pictures of lung cryosections.
Whole-body irradiation is known to cause senescence. In irradiated mice, senescent cells accumulate in different tissues, including the lung (Chang et al., 2016; Yosef et al., 2016).

[2] = use in vivo; cited from earlier work
[3] = system: senescent cells in the lung; assay: Elimination of senescent cells induced by Doxorubicin treatment in mice; format: in vivo; settings: single dose 10 mg/kg Doxorubicin; 2 months later treated for 4 consecutive days; FIG. 15
Description: (A) Experimental set up, mice (n=5 per group) were administered with a single dose of 10 mg/kg of Doxorubicin. […] (B) Cryosections of lungs obtained from control and doxorubicin treated mice were stained with hematoxilin and eosin (to reveal tissue architecture), and SA-β-Gal (to reveal senescent cells). Senescent cells accumulate in the bronchioles of doxorubicin-treated mice. (C) Quantification of the lung area positive for SA-β-Gal staining. […] (D) Representative pictures of lung cryosections.
Further experiments investigated whether the senolytic agents were capable of eliminating senescent cells in vivo. […] These senescent cells are responsible for some of the side-effects associated with chemotherapy and can fuel the growth of cancerous cells (Demaria et al., 2016). […] Doxorubicin treatment induces senescence in the lung.

IMR90 ER:RAS cells [4] = assay: Senolytic activity in IMR90 ER:RAS cells undergoing oncogene-induced senescence (4OHT) vs DMSO-treated non-senescent cells; settings: for death of cells undergoing oncogene induced senescence: 100 nM 4OHT, treated 6 days after induction at indicated concentrations, FIG. 18; for senolytic properties: selective reduction of senescent (+4OHT) vs normal (−4OHT) cell numbers: 10 μM added 6 days after 100 nM 4OHT, cell numbers 4 days after (DAPI or crystal violet), FIG. 1, FIG. 10; for ability of FAK inhibitors to kill differentially senescent cells (4OHT induced) vs non-senescent cells (DMSO treated): FIG. 12
Description: FIG. 1: (A) IMR90 ER:RAS cells were induced to undergo senescence by treating them with 100 nM 4OHT for 6 days. At that point, 10 μM of the indicated drugs was added. In parallel, the same treatments were carried out in IMR90 ER:RAS cells treated with DMSO (−4OHT). […] Cells were fixed at day 6, 8 and 10 after 4OHT induction and stained with crystal violet to assess cell viability. T, Tyr-AG879; P, PF-573228; C, Cyclosporine. (B) A similar experiment to (A) was conducted and cells at day 10 post-induction were fixed and stained with DAPI to assess cell numbers
In the setup used, IMR90 ER:RAS cells were treated with 100 nM 4OHT to induce OIS (oncogene induced senescence) and activate the ER:RAS fusion protein. 6 days after 4OHT induction (+4OHT), once cells were fully senescent, the agents to be tested were added at a concentration of 10 μM, and cell numbers were assessed 4 days after by DAPI stained couple to automated microscopy. Alternatively, cells were fixed and stained with crystal violet. In parallel, the same treatments were carried out in IMR90 ER:RAS cells treated with DMSO (−4OHT).
IMR90 ER:RAS cells were induced to undergo senescence by treating them with 100 nM 4OHT for 6 days. At that point, 10 μM of the indicated drugs was added. In parallel, the same treatments were carried out in IMR90 ER:RAS cells treated with DMSO (−4OHT). […] Cells were fixed at day 6, 8 and 10 after 4OHT induction and stained with crystal violet to assess cell viability. A similar experiment was conducted and cells at day 10 post-induction were fixed and stained with DAPI to assess cell numbers (see FIG. 1).

[5] = system: Nras^G12V-positive senescent hepatocytes; assay: Model of liver cancer initiation (NrasG12V hydrodynamic tail vein injection); format: in vivo; settings: CB17 SCID/beige mice, 1 mg/kg ip for 3 days from day 5, livers day 9
Text: (A) CB17 SCID/beige mice immunosuppressed mice were subjected to hydrodynamic tail vein injection to express NrasG12V on the liver and induce oncogene-induced senescence on hepatocytes as described in Kang et al (Nature 2011, PMID: 22080947).

old mice = assay: Intermittent ouabain treatment of old mice (ageing experiment); format: in vivo
Description: (A) 24 month old female mice were subjected to the schedule summarized in this panel. […] (B) Results of rotarod test that assess the physical fitness and coordination of mice. Left bar=saline, right bar=Ouabain.
The concentrations of Albumin (A), Amylase (B) and PHOS (C) on plasma were measured in mice from the aging experiment described in FIG. 21A. 90 days old female mice were included as a comparison (young).

[6] = system: IMR90 cells undergoing OIS; assay: Western blot of cleaved caspase 3 in IMR90 cells undergoing OIS; format: cell-based, human; settings: FIG. 17
Text: Western blot showing cleaved caspase 3 upon treatment of IMR90 cells undergoing OIS with cardiac glycosides.

[7] = system: IMR90 Cherry and IMR90 ER:RAS GFP cells; assay: Mixed cultures of normal (IMR90 Cherry) and senescent (IMR90 ER:RAS GFP) cells; format: cell-based, human; settings: IMR90 Cherry mixed with IMR90 ER:RAS GFP, 4OHT; FIG. 14
Text: FIG. 14: Senolytic agents JFD 00244 and Rottlerin specifically eliminate senescent cells in mixed cultures containing normal and senescent cells. (A) Setup of the experiments, in which normal cells (IMR90 Cherry) are mixed with IMR90 ER:RAS GFP cells (which become senescent in the presence of 4OHT). (B) Representative pictures showing the mixed cultures treated with the indicated drugs. In the bottom row, upon 4OHT the IMR90 ER:RAS GFP cells are senescent. (C) Quantification of the IMR90 Cherry (left bar) and IMR90 ER:RAS GFP (right bar) in the mixed cultures.
The above experiments were all performed comparing the effects of the drugs in cultures of normal and senescent cells. To understand whether the drugs selectively kill senescent cells from a mixed culture, experiments were conducted using Cherry-labelled normal IMR90 cells and GFP labelled IMR90 ER:RAS cells that could be induced to undergo senescence upon treatment with 4OHT (FIG. 14A).
Compounds JFD 00244 and Rottlerin specifically eliminate senescent cells in mixed cultures containing normal and senescent cells (see FIG. 14). (A) Setup of the experiments, in which normal cells (IMR90 Cherry) are mixed with IMR90 ER:RAS GFP cells (which become senescence in the presence of 4OHT). […] (C) Quantification of the IMR90 Cherry and IMR90 ER:RAS GFP in the mixed cultures.

IMR90 ER:RAS cells [8] = assay: Senolysis in presence or absence of pan-caspase inhibitor QVD (apoptosis); format: cell-based, human; settings: 2 or 3 days treatment, with or without QVD; FIG. 13
Description: FIG. 13: Several of the senolytic agents kill senescent cells by inducing apoptosis. […] Consequently cells were treated with DMSO, ABT-263 or the indicated senolytics for 2 (A) or 3 days (B) in the presence (right bar) or absence (left bar) of the pan-caspase inhibitor QVD. Treatment of senescent cells with senolytics kills them, but is prevented in the case of PF-573228, rottlerin and rotenone by pre-treatment with the pan-caspase inhibitor QVD. ABT, ABT-263; PF, PF-573228; JFD, JFD 00244; DPI, diphenyleneiodonium.
Experiments were conducted to investigate the mechanism by which the senolytics caused the elimination of senescent cells using a pan-caspase inhibitor (QVD).
Several of the agents described herein kill senescent cells by inducing apoptosis. […] Consequently, cells were treated with DMSO, ABT-263 or the indicated senolytics for 2 (A) or 3 days (B) in the presence or absence of the pan-caspase inhibitor QVD. Treatment of senescent cells with senolytics kills them, but is prevented in the case of PF-573228, rottlerin and rotenone by pre-treatment with the pan-caspase inhibitor QVD (see FIG. 13).

[9] = cited from earlier work
[10] = in vivo; cited from earlier work

## CC1(C)CCC(c2ccc(Cl)cc2)=C(CN2CCN(c3ccc(C(=O)NS(=O)(=O)c4ccc(N[C@H](CCN5CCOCC5)CSc5ccccc5)c(S(=O)(=O)C(F)(F)F)c4)cc3)CC2)C1 [ABT-263]
[1]
  lung area positive for SA-β-Gal staining (senescent cells): partially eliminated
[2]
  side-effect: significant thrombocytopenia
[3]
  lung area positive for SA-β-Gal staining (senescent cells): partially eliminated

## C[C@@H]1O[C@@H](O[C@H]2C[C@@H](O)[C@]3(CO)[C@H]4[C@H](O)C[C@]5(C)[C@@H](C6=CC(=O)OC6)CC[C@]5(O)[C@@H]4CC[C@]3(O)C2)[C@H](O)[C@H](O)[C@H]1O [Ouabain]
[1]
  lung area positive for SA-β-Gal staining (senescent cells): partially eliminated
IMR90 ER:RAS cells [4]
  death of cells undergoing oncogene induced senescence: dose-dependent death of cells undergoing oncogene induced senescence
IMR90 ER:RAS cells [4]; with KCl, FIG. 20A
  senolytic activity on adding KCl (increased intracellular K+): prevented by increasing the intracellular K^+ concentration by adding KCl
IMR90 ER:RAS cells [4]; with p38 inhibition, FIG. 20B
  senolytic activity on inhibition of p38: partially prevents the senolytic properties of ouabain
[5]; FIG. 25B
  SA-b-gal activity in liver: reduced
[5]; FIG. 25C
  p21-positive cells: reduced
[5]; FIG. 25D
  Nras-positive preneoplastic hepatocytes: reduced
Old mice; 24 month old female mice, 1 mg/kg ip, 3 consecutive days on treatment weeks, FIG. 21
  rotarod test (physical fitness and coordination): improves the physical fitness of old mice
Old mice; old mice of FIG. 21A vs young (90 days old), FIG. 22
  concentrations of Albumin, Amylase and PHOS on plasma: reverts ageing-associated changes of metabolites in blood
Old mice; old mice, FIG. 24
  SA-β-Gal positive cells in the liver: decreased senescence-associated β-galactosidase positive cells in the liver
Old mice; qRT-PCR, liver, kidney and muscle of old female mice, FIG. 23
  expression of Cdkn2a mRNA (p16Ink4a): can be reduced after ouabain treatment
[3]
  lung area positive for SA-β-Gal staining (senescent cells): partially eliminated
[6]
  cleaved caspase 3 (apoptosis in senescent cells): induces apoptosis in senescent cells

## O=C1c2ccccc2C(=O)c2c(NCCc3ccc(O)cc3)ccc(NCCc3ccc(O)cc3)c21 [JFD00244, 1,4-Bis[(p-hydroxy-phenethyl)amino]-anthraquinone]
[7]
  selective elimination of senescent cells from mixed cultures: selective elimination of senescent cells from the co-cultures

## CC(C)(C)c1cc(/C=C(\C#N)C(N)=S)cc(C(C)(C)C)c1O [Tyrphostin AG879, (2E)-3-[3,5-Bis(1,1-dimethylethyl)-4-hydroxyphenyl]-2-cyano-2-propenethioamide]
IMR90 ER:RAS cells [4]
  senolytic properties: selective reduction of senescent (+4OHT) vs normal (−4OHT) cell numbers: showed the most promising senolytic properties

## CS(=O)(=O)c1cccc(CNc2nc(Nc3ccc4c(c3)CCC(=O)N4)ncc2C(F)(F)F)c1 [PF-573228, 6-[4-(3-methyane-sulfonyl-benzyl-amino)-5-trifluoro-methyl-pyrimidin-2-ylamino]-3,4-dihydro-1H-quinolin-2-one]
IMR90 ER:RAS cells [4]
  senolytic properties: selective reduction of senescent (+4OHT) vs normal (−4OHT) cell numbers: showed the most promising senolytic properties
  ability of FAK inhibitors to kill differentially senescent cells (4OHT induced) vs non-senescent cells (DMSO treated): preferentially kill senescent cells in a dose-dependent manner
IMR90 ER:RAS cells [8]
  elimination of senescent cells with pan-caspase inhibitor QVD (apoptosis induction): selectively induce apoptosis of senescent cells

## CN(C)CC[C@H](CSc1ccccc1)Nc1ccc(S(=O)(=O)NC(=O)c2ccc(N3CCN(Cc4ccccc4-c4ccc(Cl)cc4)CC3)cc2)cc1[N+](=O)[O-] [ABT-737]
[9]
  solubility: low
[10]
  oral bioavailability: low

## CC(=O)c1c(O)c(C)c(O)c(Cc2c(O)c3c(c(C(=O)/C=C/c4ccccc4)c2O)OC(C)(C)C=C3)c1O [Rottlerin]
[7]
  selective elimination of senescent cells from mixed cultures: selective elimination of senescent cells from the co-cultures
IMR90 ER:RAS cells [8]
  elimination of senescent cells with pan-caspase inhibitor QVD (apoptosis induction): selectively induce apoptosis of senescent cells

## CC(C)c1c(C(=O)Nc2ccccc2)c(-c2ccccc2)c(-c2ccc(F)cc2)n1CC[C@@H](O)C[C@@H](O)CC(=O)O [Atorvastatin calcium]
IMR90 ER:RAS cells [4]; 4OHT vs DMSO, FIG. 11
  senolytic effect of statins, preferential killing of cells undergoing OIS: behaves as a senolytic in concentration dependent manner

## Cyclosporine
IMR90 ER:RAS cells [4]
  senolytic properties: selective reduction of senescent (+4OHT) vs normal (−4OHT) cell numbers: showed the most promising senolytic properties

## C[C@H]1O[C@@H](O[C@H]2[C@@H](O)C[C@H](O[C@H]3[C@@H](O)C[C@H](O[C@H]4CC[C@@]5(C)[C@H](CC[C@@H]6[C@@H]5C[C@@H](O)[C@]5(C)[C@@H](C7=CC(=O)OC7)CC[C@]65O)C4)O[C@@H]3C)O[C@@H]2C)C[C@H](O)[C@@H]1O [Digoxin]
IMR90 ER:RAS cells [4]
  death of cells undergoing oncogene induced senescence: dose-dependent death of cells undergoing oncogene induced senescence
[6]
  cleaved caspase 3 (apoptosis in senescent cells): induces apoptosis in senescent cells

## C[C@]12CC[C@H](O)C[C@H]1CC[C@@H]1[C@@H]2CC[C@]2(C)[C@@H](c3ccc(=O)oc3)CC[C@]12O [Bufalin, (3β,5β)-3,14-Dihydroxybufa-20,22-dienolide]
IMR90 ER:RAS cells [4]
  death of cells undergoing oncogene induced senescence: dose-dependent death of cells undergoing oncogene induced senescence

## C=C(C)[C@H]1Cc2c(ccc3c2O[C@@H]2COc4cc(OC)c(OC)cc4[C@@H]2C3=O)O1 [Rotenone, (2R,6aS,12aS)-1,2,6,6a,12,12a-hexahydro-2-isopropenyl-8,9-dimethoxychromeno[3,4-b]furo(2,3-h)chromen-6-one]
IMR90 ER:RAS cells [8]
  elimination of senescent cells with pan-caspase inhibitor QVD (apoptosis induction): selectively induce apoptosis of senescent cells

## CNC(=O)c1ccc(Nc2ncc(C(F)(F)F)c(NCc3nccnc3N(C)S(C)(=O)=O)n2)cc1 [Defactinib]
IMR90 ER:RAS cells [4]
  ability of FAK inhibitors to kill differentially senescent cells (4OHT induced) vs non-senescent cells (DMSO treated): preferentially kill senescent cells in a dose-dependent manner

## Nc1cc(N)c(N)cc1N [NSC 677249, 1,2,4,5- Benzenetetramine tetrahydrochloride]
IMR90 ER:RAS cells [4]
  ability of FAK inhibitors to kill differentially senescent cells (4OHT induced) vs non-senescent cells (DMSO treated): preferentially kill senescent cells in a dose-dependent manner
